For one data set, the target named is T1, CXCL12 (Homo sapiens, UniProt P48061).
T1 construct: purchased Peprotech (or a gift of Dr. von Hundelshausen, LMU Munich)
Briefly: Dot blot titration with TAMRA-msR4M-L1, immobilized CXCL12. Format: binding. The method, then: Dot blot. […] Non-specific binding was blocked with Tris-buffered saline (TBS), pH 7.4, containing 0.1% Tween-20 (TBS-T) and 1% BSA. […] Fluorescence intensities were measured at 600 nm using an Odyssey® Fc imager (LICOR Biosciences, Bad Homburg, Germany). The total intensity of each spot was automatically corrected by the individual background signal.

The test system of data set [1] is human monocyte-derived macrophages. The following applies: from titration of the CXCR4 inhibitor.
Data set [2] relates to primary human monocyte-derived macrophages. Put plainly: Dil-LDL uptake / foam cell formation, MIF-mediated. Format: cell-based. Particulars: 80 nM MIF. The method, then:
Dil-LDL uptake/foam cell formation. […] After washing with imaging solution (MEM without phenol red containing 30 mM HEPES, 0.5 g/L NaHCO3, pH 7.4, and 0.2% BSA), cells were exposed to 50 μg/mL 1,1′-dioctadecyl-3,3,3′3′-tetra-methylindocarbocyanine-labeled LDL (Dil-LDL) for 30 min at 4° C. followed by incubation at 37° C. for 20 min. Cells were washed with ice-cold imaging solution (pH 3.5), fixed, and counter-stained with Hoechst 33258.

Data set [3] concerns human monocyte-derived macrophages. Briefly: cells. Particulars: Macrophage, read-out: IC50 of MIF-triggered Dil-oxLDL uptake.
A further data set has as its system atherogenic Apoe−/− mice. Briefly: Localization of in-vivo-administered Fluos-msR4M-L1 (multiphoton microscopy). Also noted: species or system mouse. Particulars: three days before vessel preparation.
For data set [4], the system named is human carotid atherosclerotic plaque sections. Briefly: Staining of human carotid endarterectomy plaque sections with Fluos-msR4M-L1. From the text:
Patient population, study groups and tissue samples. Carotid artery tissue samples (n=28) came from the Munich Vascular Biobank (MVB) and were from patients who underwent carotid endarterectomy (CEA) in the Department of Vascular and Endovascular Surgery at University Hospital of Technische Universität München. Preparation of samples for histological and IHC analysis has been reported^40. […] Healthy FFPE carotid vessels were obtained from the Forensic Medicine Department (n=6). The type of atherosclerotic lesions in the CEA samples was determined according to the American Heart Association (AHA) guidelines using HE and Elastica-van-Gieson (EVG) staining procedures as described^40. […] The study was approved by the local ethical committee of the University Hospital and followed the Guidelines of the World Medical Association Declaration of Helsinki. All patients provided informed consent. Immunohistochemistry/immunofluorescence staining. Immunofluorescence staining of human CEA tissues with Fluos-msR4M-L1 was performed using the same protocol as for paraffin-embedded specimens from Ldlr^−/− mice (see above). […] HRP-conjugated polyclonal rabbit anti-goat immunoglobulin (DAKO, P0160, 1:1000) was used as secondary antibody. Slides were counterstained with Mayer hematoxylin and stainings analyzed with a Leica DMi8.

In a further data set the target is T2, plaque-associated MIF (Mus musculus, UniProt P34884).
T2 construct: from tissue; host or cells: aortic root (Ldlr-/-) and brachiocephalic artery (Apoe-/-) sections of atherogenic mice
Briefly: Staining of mouse atherosclerotic plaque sections with Fluos-msR4M-L1. Particulars: Ldlr−/− aortic root, Apoe−/− brachiocephalic artery. As for the experimental part: Staining of atherosclerotic plaque tissue with Fluos-msR4M-L1. Immunofluorescent staining of atherosclerotic tissue with Fluos-msR4M-L1 was performed with specimens from atherogenic Ldlr^−/− and Apoe^−/− mice. Ldlr^−/− mice were on chow diet for 30 weeks and developed native atherosclerotic lesions as reported previously^14. Mif-deficient mice (Ldlr^−/− Mif^−/−) were used for comparison. Aortic root sections were deparaffinized and rehydrated. For antigen retrieval, slides were boiled in sodium citrate buffer, pH 6.0, 0.05% Tween-20, and blocked with PBS, containing 5% donkey serum and 1% BSA. For staining, slides were incubated at 4° C. with Fluos-msR4M-L1 (5 μM) in blocking buffer. DAPI was used for nuclear counterstain and sections were imaged using a Leica DMI8 fluorescent microscope. The mean fluorescence intensity localized to the aortic vessel wall was quantified via Image J.
Sides were fixed in ice-cold acetone, rehydrated in PBS, and blocked in PBS/1% BSA, incubated with 500 nM Fluos-msR4M-L1, and analyzed as above.

T1 sequence (P48061 22-93): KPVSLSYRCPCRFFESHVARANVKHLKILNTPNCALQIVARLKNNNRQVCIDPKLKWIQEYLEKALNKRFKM

Regarding `CC[C@H](C)[C@H](NC(=O)[C@H](Cc1ccc(O)cc1)NC(=O)[C@H](CCCNC(=N)N)NC(=O)[C@H](CC(=O)O)NC(=O)CCCCCCCCCCCNC(=O)CCCCCNC(=O)[C@H](CCCCN)NC(=O)[C@H](CS)NC(=O)[C@H](CC(C)C)NC(=O)[C@H](Cc1ccccc1)NC(=O)[C@H](CC(N)=O)NC(=O)CNC(=O)[C@H](Cc1ccccc1)NC(=O)[C@H](Cc1ccc(O)cc1)NC(=O)[C@H](Cc1c[nH]c2ccccc12)NC(=O)[C@H](CC(N)=O)NC(=O)[C@H](C)NC(=O)[C@@H](NC(=O)[C@H](C)NC(=O)[C@H](CC(=O)O)NC(=O)c1ccc2c(c1)C(=O)OC21c2ccc(N(C)C)cc2Oc2cc(N(C)C)ccc21)C(C)C)C(=O)N[C@@H](CS)C(=O)N[C@@H](CC(=O)O)C(=O)N[C@@H](CCCNC(=N)N)C(=O)N[C@@H](Cc1ccccc1)C(=O)N[C@@H](Cc1ccc(O)cc1)C(=O)N1CCC[C@H]1C(=O)N[C@@H](CC(N)=O)C(=O)N[C@@H](CC(=O)O)C(=O)N[C@@H](CC(C)C)C(=O)N[C@@H](Cc1c[nH]c2ccccc12)C(=O)N[C@H](C(N)=O)C(C)C` [TAMRA-msR4M-L1, TAMRA-ECL1-6-Ahx-12-Ado-ECL2], the “binding to immobilized CXCL12 on dot blot” value on CXCL12 is reported as “no binding to CXCL12”.

For orientation: IC50 means the concentration that gives 50% inhibition. Take `c1cc(CN2CCCNCCNCCCNCC2)ccc1CN1CCCNCCNCCCNCC1` [AMD3100, reference compound]: the “CXCR4-dependent part of MIF-triggered oxLDL uptake” value in data set [1] is “approximately 50%”. Further, the “effect on MIF-mediated Dil-LDL uptake” value in data set [2] was “blocked”. In addition, the IC50 in data set [3] is 48.9 nM.

On to “Fluos-ECL1-6-Ahx-12-Ado-ECL2 (DAVANWYFGNFLCKDRYICDRFYPNDLWV; non-natural residues) [Fluos-msR4M-L1]”, for which the “tissue localization after intraperitoneal injection” value with atherogenic Apoe−/− mice was “strongly localized to intimal plaque areas, while staining in spleen, liver, and brain was marginal”. For the same molecule, in data set [4], the “staining of stable versus unstable human carotid plaques and healthy vessels” value is “pronounced staining of stable carotid plaque tissue that was higher than Fluos-msR4M-L1 positivity detected in unstable plaques and healthy vessels”. Moreover, the “staining of plaque sections, Mif-proficient versus Mif-deficient mice” value with plaque-associated MIF is reported as “significantly more pronounced in plaque tissue from Mif-proficient atherogenic”.

For the origin of these results see patent US20230242616A1, “CHEMOKINE-SELECTIVE CXCR4 ECTODOMAIN-DERIVED (POLY)PEPTIDE” (Ludwig-Maximilians-Universität München, priority 2020, published 2023).
